Reference: patent US20250215039A1, “NUCLEOSIDES FOR TREATING CANCER” (PRIMEFOUR THERAPEUTICS, INC., priority 2022, published 2025)
Like-named read-outs stand apart in the source and are kept apart here.

Test system: cancer cell lines
Experiment: Cancer cell proliferation activity (CellTiterGlo, 72 h)
Format: cell-based
Conditions: 72 h, 72 h, read-out: IC50
How it was run: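 Cells seeded overnight at 37 °C, then dosed with compound at 0.1% final DMSO and incubated 72 h at 37 °C (5% or 10% CO2 by medium).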

- IC50 (5637 cell line (bladder)): 560 nM
- IC50 (AS49 cell line (lung)): 3010 nM
- IC50 (CLS439 cell line (bladder)): 3260 nM
- IC50 (HS729 cell line (muscle)): 870 nM
- IC50 (JAR cell line (placenta)): 320 nM
- IC50 (Homo sapiens, 22Rv1, 72 h, 22RV1 cell line (prostate)): 1080 nM
- IC50 (Homo sapiens, 786-0, 72 h, 786O cell line (kidney)): 300 nM
- IC50 (Homo sapiens, A204, 72 h, A204 cell line (muscle)): 220 nM
- IC50 (Homo sapiens, A673, 72 h, A673 cell line (bone)): 1440 nM
- IC50 (Homo sapiens, A2780, 72 h, A2780 cell line (ovary)): 740 nM
- IC50 (Homo sapiens, A-375, 72 h, A375 cell line (skin)): 200 nM
- IC50 (Homo sapiens, A-431, 72 h, A431 cell line (skin)): 330 nM
- IC50 (Homo sapiens, ACHN, ACHN cell line (kidney)): 2540 nM
- IC50 (Homo sapiens, ASPC1, 72 h, ASPC1 cell line (pancreas)): 220 nM
- IC50 (Homo sapiens, BT-20, 72 h, BT20 cell line (breast)): 340 nM
- IC50 (Homo sapiens, BXPC-3, 72 h, BXPC3 cell line (pancreas)): 2530 nM
- IC50 (Homo sapiens, C-33-A, C33A cell line (cervical)): 630 nM
- IC50 (Homo sapiens, CAKI-1, 72 h, CAKI1 cell line (kidney)): 20 nM
- IC50 (Homo sapiens, COLO 205, 72 h, COLO205 cell line (colon)): 760 nM
- IC50 (Homo sapiens, COLO-678, 72 h, COLO678 cell line (colon)): 1990 nM
- IC50 (Homo sapiens, Ca-Ski, CASKI cell line (cervical)): 160 nM
- IC50 (Homo sapiens, Caco-2, 72 h, CACO2 cell line (colon)): 610 nM
- IC50 (Homo sapiens, Calu-6, 72 h, CALU6 cell line (lung)): 300 nM
- IC50 (Homo sapiens, DLD-1, 72 h, DLD1 cell line (colon)): 2030 nM
- IC50 (Homo sapiens, DU-145, 72 h, DU145 cell line (prostate)): 120 nM
- IC50 (Homo sapiens, EFO-21, 72 h, EFO21 cell line (ovary)): 330 nM
- IC50 (Homo sapiens, EJ-28, 72 h, EJ28 cell line (bladder)): 220 nM
- IC50 (Homo sapiens, Granta-519, 72 h, GRANTA-519 cell line (hematological)): 2600 nM
- IC50 (Homo sapiens, HCT-15, 72 h, HCT15 cell line (colon)): 1460 nM
- IC50 (Homo sapiens, HCT-116, 72 h, HCT116 cell line (colon)): 480 nM
- IC50 (Homo sapiens, HEK293, 72 h, HEK293 cell line (kidney)): 380 nM
- IC50 (Homo sapiens, HL-60, 72 h, HL-60 cell line (hematological)): 330 nM
- IC50 (Homo sapiens, HT-29, 72 h, HT29 cell line (colon)): 220 nM
- IC50 (Homo sapiens, HT-1080, 72 h, HT1080 cell line (connective tissue)): 3630 nM
- IC50 (Homo sapiens, HeLa, HELA cell line (cervical)): 440 nM
- IC50 (Homo sapiens, HepG2, 72 h, HEPG2 cell line (liver)): 300 nM
- IC50 (Homo sapiens, Hs-578T, HS578T cell line, breast): 550 nM
- IC50 (Homo sapiens, IGROV-1, 72 h, IGROV1 cell line (ovary)): 200 nM
- IC50 (Homo sapiens, IMR-90, 72 h, IMR90 cell line, lung): 410 nM
- IC50 (Homo sapiens, J82, 72 h, J82 cell line (bladder)): 470 nM
- IC50 (Homo sapiens, JEG-3, 72 h, JEG3 cell line (placenta)): 290 nM
- IC50 (Homo sapiens, JIMT-1, 72 h, JIMT1 cell line (breast)): 80 nM
- IC50 (Homo sapiens, K562, 72 h, K-562 cell line (hematological)): 5370 nM
- IC50 (Homo sapiens, Kasumi 1, 72 h, KASUMI-1 cell line (hematological)): 60 nM
- IC50 (Homo sapiens, L-363, 72 h, L-363 cell line (hematological)): 290 nM
- IC50 (Homo sapiens, LoVo, LOVO cell line (colon)): 140 nM
- IC50 (Homo sapiens, MCF7, 72 h, MCF7 cell line (breast)): 9700 nM
- IC50 (Homo sapiens, MDA-MB-231, 72 h, MDAMB231 cell line (breast)): 2850 nM
- IC50 (Homo sapiens, MDA-MB-435, 72 h, MDAMB435 cell line (skin)): 1400 nM
- IC50 (Homo sapiens, MDA-MB-436, 72 h, MDAMB436 cell line (breast)): 190 nM
- IC50 (Homo sapiens, MDA-MB-468, 72 h, MDAMB468 cell line (breast)): 270 nM
- IC50 (Homo sapiens, MG-63, 72 h, MG63 cell line (bone)): > 50000 nM
- IC50 (Homo sapiens, MHH-ES-1, 72 h, MHHES1 cell line (bone)): 400 nM
- IC50 (Homo sapiens, MIA PaCa-2, 72 h, MIAPACA2 cell line (pancreas)): > 50000 nM
- IC50 (Homo sapiens, MINO, MINO cell line (hematological)): 150 nM
- IC50 (Homo sapiens, MV4-11, 72 h, MV4-11 cell line (hematological)): 50 nM
- IC50 (Homo sapiens, NCI-H23, 72 h, NCI-H23 cell line (lung)): 410 nM
- IC50 (Homo sapiens, NCI-H82, 72 h, NCIH82 cell line (lung)): 390 nM
- IC50 (Homo sapiens, NCI-H292, 72 h, NCIH292 cell line (lung)): 4170 nM
- IC50 (Homo sapiens, NCI-H460, 72 h, NCIH460 cell line (lung)): 500 nM
- IC50 (Homo sapiens, OVCAR-3, 72 h, OVCAR3 cell line (ovary)): 170 nM
- IC50 (Homo sapiens, OVCAR-4, 72 h, OVCAR4 cell line (ovary)): 560 nM
- IC50 (Homo sapiens, PANC-1, 72 h, PANC1 cell line (pancreas)): > 50000 nM
- IC50 (Homo sapiens, PC-3, 72 h, PC3 cell line (prostate)): 470 nM
- IC50 (Homo sapiens, PLC-PRF-5, 72 h, PLCPRF5 cell line (liver)): 2020 nM
- IC50 (Homo sapiens, Panc1005, 72 h, PANC1005 cell line (pancreas)): 230 nM
- IC50 (Homo sapiens, RD, RD cell line (muscle)): 640 nM
- IC50 (Homo sapiens, Ramos, RAMOS cell line (hematological)): 520 nM
- IC50 (Homo sapiens, SAOS-2, 72 h, SAOS2 cell line (bone)): 300 nM
- IC50 (Homo sapiens, SF-268, 72 h, SF268 cell line (brain)): 5030 nM
- IC50 (Homo sapiens, SF-295, 72 h, SF295 cell line (brain)): 1650 nM
- IC50 (Homo sapiens, SK-BR-3, 72 h, SKBR3 cell line (breast)): 50 nM
- IC50 (Homo sapiens, SK-HEP1, 72 h, SKHEP1 cell line (liver)): 2410 nM
- IC50 (Homo sapiens, SK-LMS-1, 72 h, SKLMS1 cell line (uterus)): 300 nM
- IC50 (Homo sapiens, SK-MEL-5, 72 h, SKMEL5 cell line, skin): 3170 nM
- IC50 (Homo sapiens, SK-MEL-28, 72 h, SKMEL28 cell line (skin)): 680 nM
- IC50 (Homo sapiens, SK-N-AS, SKNAS cell line (brain)): 370 nM
- IC50 (Homo sapiens, SK-N-SH, SKNSH cell line (brain)): 260 nM
- IC50 (Homo sapiens, SK-OV-3, 72 h, SKOV3 cell line (ovary)): 460 nM
- IC50 (Homo sapiens, SNB-75, 72 h, SNB75 cell line (brain)): 1380 nM
- IC50 (Homo sapiens, SU-DHL10, 72 h, SU-DHL-10 cell line (hematological)): 460 nM
- IC50 (Homo sapiens, SU-DHL-6, 72 h, SU-DHL-6 cell line (hematological)): 240 nM
- IC50 (Homo sapiens, SW-620, 72 h, SW620 cell line (colon)): 360 nM
- IC50 (Homo sapiens, T-24, 72 h, T24 cell line (bladder)): 600 nM
- IC50 (Homo sapiens, TE-671, 72 h, TE671 cell line (muscle)): 2440 nM
- IC50 (Homo sapiens, THP-1, 72 h, THP-1 cell line (hematological)): 2270 nM
- IC50 (Homo sapiens, U2OS, U2OS cell line (bone)): 510 nM
- IC50 (Homo sapiens, U-87 MG, U87MG cell line (brain)): 3130 nM
- IC50 (Homo sapiens, UMUC3, 72 h, UMUC3 cell line (bladder)): 3040 nM
- IC50 (Homo sapiens, UO-31, 72 h, UO31 cell line (kidney)): 240 nM
- IC50 (Homo sapiens, WSU-NHL, WSU-NHL cell line (hematological)): 460 nM
- IC50 (MT-3, 72 h, MT3 cell line (breast)): 280 nM
- IC50 (NCI-H358M, NCIH358M cell line (lung)): 270 nM
- IC50 (PBMC, PBMC (hematological)): > 50000 nM
- IC50 (RD-ES, RDES cell line (bone)): 250 nM
SMILES: CCC[C@]1(CO)O[C@@H](n2cnc3c(N)nc(F)nc32)C[C@@H]1O [Cpd. No. 129, (2R,3S,5R)-5-(6-amino-2-fluoro-9H-purin-9-yl)-2-(hydroxymethyl)-2-propyltetrahydrofuran-3-ol]
